Counter-ions that a name gives are not always drawn.

Broadly, the melting point is the temperature of the solid-liquid transition. `CN1CCN(c2cccc3c(S(=O)(=O)c4ccc(Cl)cc4Cl)c[nH]c23)CC1` [compound 506, 3-(2,4-dichloro-benzenesulfonyl)-7-(4-methyl-piperazin-1-yl)-1H-indole] yielded a melting point of 199 to 203 °C.

Turning to `Cc1[nH]c2c(N3CCNCC3)cccc2c1S(=O)(=O)c1ccc(Cl)cc1` [compound 602, 3-(4-chlorobenzenesulfonyl)-2-methyl-7-piperazin-1-yl-1H-indole], the melting point was in the range of 118 to 120 °C.

`O=S(=O)(c1ccncc1)c1c[nH]c2c(N3CCNCC3)cccc12` displayed a melting point of 207 to 208 °C.

Turning to `O=S(=O)(c1ccccc1)c1c[nH]c2c(N3CCNCC3)cccc12` (as salt: hydrochloride), the melting point was 278 to 280 °C.

As to `c1ccc(Sc2c[nH]c3ccc(N4CCNCC4)cc23)cc1`, the melting point was 246 to 247 °C.

Consider `O=S(=O)(c1ccccc1Cl)c1c[nH]c2c(N3CCNCC3)cccc12` [compound 108, 3-(2-chloro-benzenesulfonyl)-7-piperazin-1-yl-1H-indole], for which the melting point was 280 to 282 °C.

In turn, `O=S(=O)(c1ccccc1)c1c[nH]c2c(N3CCN(CC4CC4)CC3)cccc12` [compound 511, 3-benzenesulfonyl-7-(4-cyclopropylmethyl-piperazin-1-yl)-1H-indole] yielded a melting point of 280 to 282 °C.

For the compound `Cn1cc(S(=O)(=O)c2cccc(C(F)(F)F)c2)c2cccc(N3CCNCC3)c21` [compound 406, 1-methyl-7-piperazin-1-yl-3-(3-trifluoromethyl-benzenesulfonyl)-1H-indole], the melting point lay in the range of 279 to 280 °C.

Regarding `O=S(=O)(c1cccc(Cl)c1)c1c[nH]c2c(N3CCNCC3)cccc12` [compound 107, 3-(3-chloro-benzenesulfonyl)-7-piperazin-1-yl-1H-indole], the melting point stood at 295 °C.

On to `Cn1cc(S(=O)(=O)c2ccccn2)c2cc(N3CCNCC3)ccc21` [compound 416, 1-methyl-5-piperazin-1-yl-3-(pyridine-2-sulfonyl)-1H-indole], for which the melting point was 256.8 to 257.5 °C.

The compound `O=S(=O)(c1ccccc1)c1c[nH]c2c(C3CCNCC3)cccc12` [compound 301, 3-benzenesulfonyl-7-piperidin-4-yl-1H-indole] displayed a melting point of 186 to 189.5 °C.

Consider `Cc1[nH]c2c(N3CCNCC3)cccc2c1S(=O)(=O)c1ccc(F)cc1` [compound 603, 3-(4-fluorobenzenesulfonyl)-2-methyl-7-piperazin-1-yl-1H-indole], for which the melting point fell in the range of 232 to 236 °C.

As for `O=S(=O)(c1ccccc1)c1c[nH]c2ccc(N3CCNCC3)cc12`, the melting point was 254 to 264 °C (dec.).

As for `O=S(=O)(c1cc(Cl)cc(Cl)c1)c1c[nH]c2ccc(N3CCNCC3)cc12` [compound 205, 3-(3,5-dichloro-benzenesulfonyl)-5-piperazin-1-yl-1H-indole], the melting point was above 300 °C.

As for `O=S(=O)(c1ccc(Cl)c(Cl)c1)c1c[nH]c2c(N3CCNCC3)cccc12` [compound 103, 3-(3,4-dichloro-benzenesulfonyl)-7-piperazin-1-yl-1H-indole], the melting point was 290 °C.

The compound `O=S(=O)(c1ccc(F)cc1)c1c[nH]c2ccc(N3CCNCC3)cc12` [compound 207, 3-(4-fluoro-benzenesulfonyl)-5-piperazin-1-yl-1H-indole] registered a melting point of 289 to 291 °C.

The compound `Clc1cccc(Sc2c[nH]c3ccc(N4CCNCC4)cc23)c1Cl` returned a melting point of 255.1 to 255.5 °C.

`CCCN1CCN(c2cccc3c(S(=O)(=O)c4ccccc4)c[nH]c23)CC1` [compound 512, 3-benzenesulfonyl-7-(4-propyl-piperazin-1-yl)-1H-indole] gave a melting point of 290 to 295 °C.

Regarding `O=S(=O)(c1ccc(Cl)cc1Cl)c1c[nH]c2c(N3CCNCC3)cccc12` [compound 106, 3-(2,4-dichloro-benzenesulfonyl)-7-piperazin-1-yl-1H-indole], the melting point is 300 °C.

These data come from patent US6787535B2, “Indole derivatives with 5HT6 receptor affinity” (Syntex (U.S.A.) LLC, priority 2001, dated 2004).
